Test results from ChEMBL document CHEMBL1159286, “New secosteroids from an undescribed gorgonian of the genus Muricella” (J Nat Prod, 1995).
Converted amounts (≈) assume the structure as drawn.

Legend:
Artemia = assay: Toxicity against brine shrimp larvae; assay type: organism-based; conditions: in vivo
Human alphaherpesvirus 1 = assay: Antiviral activity against HSV1; assay type: functional, organism-based
Human alphaherpesvirus 2 = assay: Antiviral activity against HSV2; assay type: functional, organism-based
Enterovirus C = assay: Antiviral activity against Poliovirus; assay type: functional, organism-based

Row | SMILES | LD50 (Artemia) [ppm] | EC50 (Human alphaherpesvirus 1) [µg/mL] | EC50 (Human alphaherpesvirus 2) [µg/mL] | EC50 (Enterovirus C) [µg/mL]
1 | Cc1ccc(O)cc1CC[C@@H]1[C@H](O)CC[C@]2(C)[C@@H]([C@H](C)CCCC(C)C)CC[C@@H]12 [ASTROGORGIADIOL] | > 100 | – | – | –
2 | Cc1ccc(O)cc1CC[C@@H]1C(=O)CC[C@]2(C)[C@@H]([C@H](C)/C=C/CC(C)C)CC[C@@H]12 [CALICOFEROL A] | 1.8 | – | – | –
3 | Cc1ccc(O)cc1CC[C@@H]1[C@H](O)CC[C@]2(C)[C@@H]([C@H](C)CCCC(C)C)[C@@H](O)C[C@@H]12 [CALICOFEROL B] | 2.3 | – | – | –
4 | C=C(CC[C@@H](C)[C@H]1CC[C@H]2[C@H](CCc3cc(O)ccc3C)[C@H](O)CC[C@]12C)C(C)C [CALICOFEROL C] | > 100 | – | – | –
5 | Cc1ccc(O)cc1CC[C@@H]1C(=O)CC[C@]2(C)[C@@H]([C@H](C)/C=C/C(C)C(C)C)CC[C@@H]12 (some centres undefined) [CALICOFEROL D] | 37 | 1.2 (≈ 2.92 µM) | 1.2 (≈ 2.92 µM) | 0.4 (≈ 0.974 µM)
6 | Cc1ccc(O)cc1CC[C@@H]1C(=O)CC[C@]2(C)[C@@H]([C@H](C)CCCC(C)C)CC[C@@H]12 [CALICOFEROL E] | > 100 | – | – | –
